Reference: ChEMBL document CHEMBL1135076, “Leishmanicidal activity of some aliphatic diamines and amino-alcohols” (Bioorg Med Chem Lett, 2002)

Experiments:
Format in all cases: functional, organism-based
[1] = tested on: Leishmania donovani; assay: In vitro for leishmanicidal activity against Leishmania donovani (PP75) at the concentration of 25 ug/mL.
[2] = tested on: Leishmania amazonensis; assay: In vitro for leishmanicidal activity against Leishmania amazonensis (PH8) at the concentration of 50 ug/mL.
[3] = tested on: Leishmania amazonensis; assay: In vitro for leishmanicidal activity against Leishmania amazonensis (PH8) at the concentration of 100 ug/mL.
[4] = tested on: Leishmania amazonensis; assay: In vitro for leishmanicidal activity against Leishmania amazonensis (PH8) at the concentration of 10 ug/mL.
[5] = tested on: Leishmania donovani; assay: In vitro for leishmanicidal activity against Leishmania donovani (PP75) at the concentration of 50 ug/mL.
[6] = tested on: Leishmania donovani; assay: In vitro for leishmanicidal activity against Leishmania donovani (PP75) at the concentration of 100 ug/mL.
[7] = tested on: Leishmania braziliensis; assay: In vitro for leishmanicidal activity against Leishmania brasiliensis (2903) at the concentration of 25 ug/mL.
[8] = tested on: Leishmania donovani; assay: Tested in vitro for leishmanicidal activity against Leishmania donovani (PP75) at the concentration of 10 ug/mL
[9] = tested on: Leishmania braziliensis; assay: In vitro for leishmanicidal activity against Leishmania brasiliensis (2903) at the concentration of 50 ug/mL.
[10] = tested on: Leishmania braziliensis; assay: Tested in vitro for leishmanicidal activity against Leishmania brasiliensis (2903) at the concentration of 100 ug/mL; ++ indicates 80-90% lysis of parasites
[11] = tested on: Leishmania amazonensis; assay: In vitro for leishmanicidal activity against Leishmania amazonensis (PH8) at 25 ug/mL; No lysis of parasites.
[12] = tested on: Leishmania braziliensis; assay: In vitro for leishmanicidal activity against Leishmania brasiliensis (2903) at the concentration of 10 ug/mL.
[13] = tested on: Leishmania donovani; assay: Tested in vitro for leishmanicidal activity against Leishmania donovani (PP75) at the concentration of 25 ug/mL;+ indicates Less than 70% lysis of parasites
[14] = tested on: Leishmania braziliensis; assay: Tested in vitro for leishmanicidal activity against Leishmania brasiliensis (2903) at the concentration of 10 ug/mL;+ indicates Less than 70% lysis of parasites
[15] = tested on: Leishmania amazonensis; assay: Tested in vitro for leishmanicidal activity against Leishmania amazonensis (PH8) at the concentration of 25 ug/mL; + indicates less than 70% lysis of parasites
[16] = tested on: Leishmania donovani; assay: Tested in vitro for leishmanicidal activity against Leishmania donovani (PP75) at the concentration of 50 ug/mL;++ indicates 80-90% lysis of parasites
[17] = tested on: Leishmania braziliensis; assay: Tested in vitro for leishmanicidal activity against Leishmania brasiliensis (2903) at the concentration of 50 ug/mL;++ indicates 80-90% lysis of parasites
[18] = tested on: Leishmania braziliensis; assay: Tested in vitro for leishmanicidal activity against Leishmania brasiliensis (2903) at the concentration of 25 ug/mL;+ indicates Less than 70% lysis of parasites
[19] = tested on: Leishmania braziliensis; assay: In vitro for leishmanicidal activity against Leishmania brasiliensis (2903) at the concentration of 100 ug/mL.
[20] = tested on: Leishmania donovani; assay: In vitro for leishmanicidal activity against Leishmania donovani (PP75) at the concentration of 10 ug/mL.
[21] = tested on: Leishmania braziliensis; assay: Tested in vitro for leishmanicidal activity against Leishmania brasiliensis (2903) at the concentration of 100 ug/mL; + indicates Less than 70% lysis of parasites
[22] = tested on: Leishmania donovani; assay: Tested in vitro for leishmanicidal activity against Leishmania donovani (PP75) at the concentration of 100 ug/mL;+ indicates Less than 70% lysis of parasites
[23] = tested on: Leishmania amazonensis; assay: Tested in vitro for leishmanicidal activity against Leishmania amazonensis (PH8) at the concentration of 100 ug/mL; + indicates less than 70% lysis of parasites

| SMILES | Activity [1] | Activity [2] | Activity [3] | Activity [4] | Activity [5] | Activity [6] | Activity [7] | Activity [8] | Activity [9] | Activity [10] | Activity [11] | Activity [12] | other results |
| --- | --- | --- | --- | --- | --- | --- | --- | --- | --- | --- | --- | --- | --- |
| CCCCCCCCCCCCCCC(N)CN (stereo unspecified) | 80-90% lysis of parasites | 80-90% lysis of parasites | 80-90% lysis of parasites | 80-90% lysis of parasites | 80-90% lysis of parasites | 80-90% lysis of parasites | 80-90% lysis of parasites | 80-90% lysis of parasites | 80-90% lysis of parasites | 80-90% lysis of parasites | 80-90% lysis of parasites | 80-90% lysis of parasites | – |
| CCCCCCCCCCCCCCC(COCc1ccccc1)NC(=O)CCCC(=O)O (stereo unspecified) | 80-90% lysis of parasites | 80-90% lysis of parasites | 80-90% lysis of parasites | 80-90% lysis of parasites | 80-90% lysis of parasites | 80-90% lysis of parasites | 80-90% lysis of parasites | 80-90% lysis of parasites | 80-90% lysis of parasites | 80-90% lysis of parasites | 80-90% lysis of parasites | 80-90% lysis of parasites | – |
| C[C@@H]1[C@H](O)[C@@H](C)/C=C/C=C/C=C/C=C/C=C/C=C/C=C/[C@H](O[C@@H]2O[C@H](C)[C@@H](O)[C@H](N)[C@@H]2O)C[C@@H]2O[C@](O)(C[C@@H](O)C[C@@H](O)[C@H](O)CC[C@@H](O)C[C@@H](O)CC(=O)O[C@H]1C)C[C@H](O)[C@H]2C(=O)O | – | + | + | – | + | + | – | – | – | – | – | – | – |
| CCCCCCCCCCCCCCC(COCc1ccccc1)NCC(=O)OCC (stereo unspecified) | 80-90% lysis of parasites | 80-90% lysis of parasites | 80-90% lysis of parasites | 80-90% lysis of parasites | 80-90% lysis of parasites | 80-90% lysis of parasites | 80-90% lysis of parasites | 80-90% lysis of parasites | 80-90% lysis of parasites | 80-90% lysis of parasites | 80-90% lysis of parasites | 80-90% lysis of parasites | – |
| CCCCCCCCCCCCCCC(CNCC(=O)OCC)NC(=O)OC(C)(C)C (stereo unspecified) | – | + | + | 80-90% lysis of parasites | – | + | – | – | – | – | – | – | Activity [13]: 80-90% lysis of parasites; Activity [14]: 80-90% lysis of parasites; Activity [15]: 80-90% lysis of parasites; Activity [16]: 80-90% lysis of parasites; Activity [17]: 80-90% lysis of parasites; Activity [18]: 80-90% lysis of parasites; Activity [19]: +; Activity [20]: 80-90% lysis of parasites |
| CCCCCCCCCCCCCCC(CN)NC(=O)OC(C)(C)C (stereo unspecified) | 80-90% lysis of parasites | 80-90% lysis of parasites | 80-90% lysis of parasites | 80-90% lysis of parasites | 80-90% lysis of parasites | 80-90% lysis of parasites | 80-90% lysis of parasites | 80-90% lysis of parasites | 80-90% lysis of parasites | 80-90% lysis of parasites | 80-90% lysis of parasites | 80-90% lysis of parasites | – |
| CCCCCCCCCCCCCCC(=O)NC(CCCCCCCCCCCCCC)COC(=O)CCCCCC (stereo unspecified) | Less than 70% lysis of parasites | Less than 70% lysis of parasites | – | Less than 70% lysis of parasites | Less than 70% lysis of parasites | – | Less than 70% lysis of parasites | Less than 70% lysis of parasites | Less than 70% lysis of parasites | – | Less than 70% lysis of parasites | Less than 70% lysis of parasites | Activity [21]: Less than 70% lysis of parasites; Activity [22]: Less than 70% lysis of parasites; Activity [23]: Less than 70% lysis of parasites |
| CCCCCCCCCCCCCCC(NC(=O)OC(C)(C)C)C(=O)O (stereo unspecified) | 80-90% lysis of parasites | 80-90% lysis of parasites | 80-90% lysis of parasites | 80-90% lysis of parasites | 80-90% lysis of parasites | 80-90% lysis of parasites | 80-90% lysis of parasites | 80-90% lysis of parasites | 80-90% lysis of parasites | 80-90% lysis of parasites | 80-90% lysis of parasites | 80-90% lysis of parasites | – |
| CCCCCCCCCCCCCCC(CO)NC(=O)CCCCCC (stereo unspecified) | Less than 70% lysis of parasites | Less than 70% lysis of parasites | Less than 70% lysis of parasites | Less than 70% lysis of parasites | Less than 70% lysis of parasites | Less than 70% lysis of parasites | Less than 70% lysis of parasites | Less than 70% lysis of parasites | Less than 70% lysis of parasites | – | Less than 70% lysis of parasites | Less than 70% lysis of parasites | Activity [21]: Less than 70% lysis of parasites |
| CCCCCCCCCCCCCCC(CO)NC(=O)OC(C)(C)C (stereo unspecified) | 80-90% lysis of parasites | 80-90% lysis of parasites | 80-90% lysis of parasites | 80-90% lysis of parasites | 80-90% lysis of parasites | 80-90% lysis of parasites | 80-90% lysis of parasites | 80-90% lysis of parasites | 80-90% lysis of parasites | 80-90% lysis of parasites | 80-90% lysis of parasites | 80-90% lysis of parasites | – |
| CCCCCCCCCCCCCCC(COC(=O)CCCCCC)NC(=O)CCCCCC (stereo unspecified) | 80-90% lysis of parasites | 80-90% lysis of parasites | 80-90% lysis of parasites | 80-90% lysis of parasites | 80-90% lysis of parasites | 80-90% lysis of parasites | 80-90% lysis of parasites | 80-90% lysis of parasites | 80-90% lysis of parasites | 80-90% lysis of parasites | 80-90% lysis of parasites | 80-90% lysis of parasites | – |
| CCCCCCCCCCCCCCC(N)CN(CC)CC (stereo unspecified) | – | + | + | Less than 70% lysis of parasites | + | + | – | – | – | – | – | – | Activity [14]: Less than 70% lysis of parasites; Activity [19]: +; Activity [20]: Less than 70% lysis of parasites |
| CCCCCCCCCCCCCCC(COCc1ccccc1)N(CC)CC (stereo unspecified) | 80-90% lysis of parasites | 80-90% lysis of parasites | 80-90% lysis of parasites | 80-90% lysis of parasites | 80-90% lysis of parasites | 80-90% lysis of parasites | 80-90% lysis of parasites | 80-90% lysis of parasites | 80-90% lysis of parasites | 80-90% lysis of parasites | 80-90% lysis of parasites | 80-90% lysis of parasites | – |
| CCCCCCCCCCCCCCC(N)CO (stereo unspecified) | 80-90% lysis of parasites | 80-90% lysis of parasites | 80-90% lysis of parasites | 80-90% lysis of parasites | 80-90% lysis of parasites | 80-90% lysis of parasites | 80-90% lysis of parasites | 80-90% lysis of parasites | 80-90% lysis of parasites | 80-90% lysis of parasites | 80-90% lysis of parasites | 80-90% lysis of parasites | – |
